Laboratory results taken from PMC1971749, “The effects of gonadotrophin releasing hormone analogues in prostate cancer are mediated through specific tumour receptors” (British Journal of Cancer, 1990).
Where two headings read alike, the source gives them in different places.

How the values were obtained:
[1] = tested on: LNCaP cells; test: Biological response study, growth of LNCaP cells; assay type: cell-based, human
From the text: Br.~~~~ ~ ~ J. Cace (19) 62 969 ?amla resLd,19 The effects of gonadotrophin releasing hormone analogues in prostate cancer are mediated through specific tumour receptors A. Qayuml, W. Gullick2, R.C. Clayton3, K. Sikora' & J. Waxman' 'Department of Clinical Oncology and 2ICRF Oncology Group, Royal Postgraduate Medical School, and 3Clinical Endocrinology, MRC, Northwick Park Hospital, London, UK. Summary We have investigated the possibility of a direct regulatory effect of gonadotrophin releasing hormone (GnRH) analogues on prostatic cancer cell growth. Here we report high affinity binding (Kd = 50 nM) of a GnRH analogue resulting in biphasic growth modulation of the human androgen-sensitive prostatic cancer cell line LNCaP. […] Seventy-six human benign and malignant tumours were assayed following surgical resection. […] Cancer of the prostate is the second most common cause of malignancy among males. The treatment of prostatic cancer aims to reduce serum androgen concentrations. The long- acting agonist analogues of GnRH have been recently intro- duced as effective alternative therapies to orchiectomy and oestrogen treatment (Waxman, 1987). Their effect on andro- gen dependent cell growth is thought to be mediated through down-regulation of the pituitary-gonadal axis. GnRH agon- ist treatment leads to an initial increase in the serum levels of LH, FSH and androgens and this may be accompanied by tumour flare (Waxman et al., 1985). However, this exacerba- tion of symptoms is not temporally related to changes in serum LH, FSH and androgen concentrations. The differ- ences in the timing of these biochemical and clinical phenomena raises the possibility of a direct effect of GnRH analogues at the level of the tumour. This present study explored the direct effects of GnRH analogues on prostatic cancer cells in culture and in vivo. GnRH analogue binding to human prostatic cancer cells grown in culture and biopsy samples was first examined. GnRH binding sites were characterised in cell lines and in human tumours. The biological effects of GnRH on prostatic cancer cells and a possible autocrine stimulatory role of GnRH-like peptides were investigated. Materials and methods Cell culture The human androgen-sensitive prostatic cancer cell line LNCaP (isolated from lymph node metastasis; Horoszewicz et al., 1983) and the human androgen-insensitive prostatic cell line DU145 (isolated from brain metastasis) were obtained from the American Type Culture Collection. Cul- tures were maintained in exponential growth in RPMI 1640 medium containing 10% charcoal stripped fetal calf serum and 5 fig ml-I insulin. The fetal calf serum used in cell cul- ture medium was treated with dextran and charcoal to remove steroids. Charcoal 0.25% and dextran-T70 0.025% were added to the serum, which was heated at 56'C for 2 h and then centrifuged at 4,000 r.p.m. for O min. The pellet was discarded, serum was filtered through 0.4 ltm filters and used in culture medium. The treated serum was assayed for steroid hormones by the Hammersmith Hospital Endocrine Laboratories and found to be steroid free, Cultures were incubated at 37?C in a humidified atmosphere containing 5% CO2 and subcultured weekly using 0.1% EDTA to remove the cells from the plastic substratum. […] GnRH binding assays Exponentially growing cells were harvested with 0.1% EDTA, washed twice with PBS and counted using 0.2% trypan blue as an indicator. […]

[2] = tested on: DU145 cells; test: Biological response study, growth of DU145 cells; assay type: cell-based, human; details: DU145 (androgen-insensitive) cells, 10 days
From the text: (§1) Br.~~~~ ~ ~ J. Cace (19) 62 969 ?amla resLd,19 The effects of gonadotrophin releasing hormone analogues in prostate cancer are mediated through specific tumour receptors A. Qayuml, W. Gullick2, R.C. Clayton3, K. Sikora' & J. Waxman' 'Department of Clinical Oncology and 2ICRF Oncology Group, Royal Postgraduate Medical School, and 3Clinical Endocrinology, MRC, Northwick Park Hospital, London, UK. Summary We have investigated the possibility of a direct regulatory effect of gonadotrophin releasing hormone (GnRH) analogues on prostatic cancer cell growth. Here we report high affinity binding (Kd = 50 nM) of a GnRH analogue resulting in biphasic growth modulation of the human androgen-sensitive prostatic cancer cell line LNCaP. […] Seventy-six human benign and malignant tumours were assayed following surgical resection. […] Cancer of the prostate is the second most common cause of malignancy among males. The treatment of prostatic cancer aims to reduce serum androgen concentrations. The long- acting agonist analogues of GnRH have been recently intro- duced as effective alternative therapies to orchiectomy and oestrogen treatment (Waxman, 1987). […] GnRH binding assays Exponentially growing cells were harvested with 0.1% EDTA, washed twice with PBS and counted using 0.2% trypan blue as an indicator. […]

[3] = tested on: GnRH binding sites of DU145 cells; test: GnRH analogue binding to DU145 cells (displacement of 125I-buserelin); design: species or system human
From the text: as §1

[4] = tested on: GnRH binding sites of LNCaP cells; test: GnRH analogue binding to LNCaP cells (displacement of 125I-buserelin); design: species or system human; details: for displacement of labelled buserelin: specificity test, structurally unrelated peptides, LNCaP
From the text: Br.~~~~ ~ ~ J. Cace (19) 62 969 ?amla resLd,19 The effects of gonadotrophin releasing hormone analogues in prostate cancer are mediated through specific tumour receptors A. Qayuml, W. Gullick2, R.C. Clayton3, K. Sikora' & J. Waxman' 'Department of Clinical Oncology and 2ICRF Oncology Group, Royal Postgraduate Medical School, and 3Clinical Endocrinology, MRC, Northwick Park Hospital, London, UK. Summary We have investigated the possibility of a direct regulatory effect of gonadotrophin releasing hormone (GnRH) analogues on prostatic cancer cell growth. Here we report high affinity binding (Kd = 50 nM) of a GnRH analogue resulting in biphasic growth modulation of the human androgen-sensitive prostatic cancer cell line LNCaP. […] Seventy-six human benign and malignant tumours were assayed following surgical resection. […] Cancer of the prostate is the second most common cause of malignancy among males. The treatment of prostatic cancer aims to reduce serum androgen concentrations. The long- acting agonist analogues of GnRH have been recently intro- duced as effective alternative therapies to orchiectomy and oestrogen treatment (Waxman, 1987). Their effect on andro- gen dependent cell growth is thought to be mediated through down-regulation of the pituitary-gonadal axis. GnRH agon- ist treatment leads to an initial increase in the serum levels of LH, FSH and androgens and this may be accompanied by tumour flare (Waxman et al., 1985). However, this exacerba- tion of symptoms is not temporally related to changes in serum LH, FSH and androgen concentrations. The differ- ences in the timing of these biochemical and clinical phenomena raises the possibility of a direct effect of GnRH analogues at the level of the tumour. This present study explored the direct effects of GnRH analogues on prostatic cancer cells in culture and in vivo. GnRH analogue binding to human prostatic cancer cells grown in culture and biopsy samples was first examined. GnRH binding sites were characterised in cell lines and in human tumours. The biological effects of GnRH on prostatic cancer cells and a possible autocrine stimulatory role of GnRH-like peptides were investigated. Materials and methods Cell culture The human androgen-sensitive prostatic cancer cell line LNCaP (isolated from lymph node metastasis; Horoszewicz et al., 1983) and the human androgen-insensitive prostatic cell line DU145 (isolated from brain metastasis) were obtained from the American Type Culture Collection. Cul- tures were maintained in exponential growth in RPMI 1640 medium containing 10% charcoal stripped fetal calf serum and 5 fig ml-I insulin. The fetal calf serum used in cell cul- ture medium was treated with dextran and charcoal to remove steroids. Charcoal 0.25% and dextran-T70 0.025% were added to the serum, which was heated at 56'C for 2 h and then centrifuged at 4,000 r.p.m. for O min. The pellet was discarded, serum was filtered through 0.4 ltm filters and used in culture medium. The treated serum was assayed for steroid hormones by the Hammersmith Hospital Endocrine Laboratories and found to be steroid free, Cultures were incubated at 37?C in a humidified atmosphere containing 5% CO2 and subcultured weekly using 0.1% EDTA to remove the cells from the plastic substratum. Under these conditions, the doubling times of DU145 and LNCaP cells were 72 and 144 h respectively. GnRH binding assays Exponentially growing cells were harvested with 0.1% EDTA, washed twice with PBS and counted using 0.2% trypan blue as an indicator. The cells were then resuspended in assay buffer (10 mM Tris-HCI pH 7.6, 1 mM dithiothreitol, 0.3% bovine serum albumin). One million cells per tube were incubated with 200,000 c.p.m. (0.1 nM) of 25I buserelin (125J_ D-Ser (TBU)6-LHRH-ethylamide) (Hoechst AG, Frankfurt), (specific activity 53,000 kBq;bg-') with or without varying concentrations of unlabelled buserelin (O.1-100 nM). Non- specific binding was estimated in the presence of 10 IM unlabelled buserelin. […]

[5] = GnRH radioimmunoassay, specificity; details: cross-reactivity control, Figure 1; sensitivity 0.25 fmol per tube
[6] = 100-fold excess of GnRH antagonist over buserelin, cell numbers, triplicate, representative experiment (Figure 6)

D-Ser (TBU)6-LHRH-ethylamide [buserelin]
growth of the cells at higher concentrations ([1]; 10 days, GnRH analogue 100 nM): slightly inhibited | stimulation of growth relative to control cultures, total DNA content ([1]; 10 days, buserelin 1-10 nM, 10% charcoal stripped FCS, Burton's method, three experiments each in triplicate): ≤ 140% | stimulation of growth relative to control cultures, cell numbers ([1]; 10 days, buserelin 1-10 nM, 10% charcoal stripped FCS, three experiments each in triplicate): ≤ 140% | response to buserelin treatment (growth) [2]: did not show any response | response to buserelin treatment (growth) ([2]; listed as GnRH analogue): without any biological response | Kd ([3]; 125I buserelin 0.1 nM, 3 h, 4 C, pH 7.6, abstract, read-out: Kd, low-affinity binding in DU145): 10 µM | Kd ([4]; Scatchard transformation of the same data, single class of binding sites in LNCaP cells, read-out: Kd (Scatchard plot)): 0.04 µM | binding sites per cell ([4]; Scatchard transformation, LNCaP cells): 35,000 binding sites per cell | Kd ([4]; intact LNCaP cells (10^6 per tube), 125I buserelin 0.1 nM, unlabelled buserelin, Tris-HCl pH 7.6, 3 h, 4 C, triplicate, representative experiment, read-out: Kd of GnRH analogue binding in LNCaP): 0.05 µM

oxytocin: structurally unrelated peptide
GnRH-immunoreactivity in GnRH-RIA [5]: did not show any GnRH-immunoreactivity | displacement of labelled buserelin [4]: did not displace labelled buserelin

D-pGlul, D-Phe2, D- Trp3' 6) GnRH [GnRH antagonist]
block of inhibitory effect of buserelin [1, 6]: partially blocked | block of stimulatory effect of buserelin [1, 6]: partially blocked

bradykinin: structurally unrelated peptide (RPPGFSPFR; Bradykinin; UniProt P01042 381-389, looked up)
GnRH-immunoreactivity in GnRH-RIA [5]: did not show any GnRH-immunoreactivity | displacement of labelled buserelin [4]: did not displace labelled buserelin

N[C@@H](CSSC[C@H](N)C(=O)Nc1ccc([N+](=O)[O-])cc1)C(=O)Nc1ccc([N+](=O)[O-])cc1 [L-cystine-bis-(4-nitroanilide)]
reduction of specific binding of buserelin by protease substrate ([3]; protease substrate final concentration 10 µM (printed "10 gsM")): 68% | reduction of specific binding of buserelin by protease substrate ([4]; LNCaP cells, protease substrate final concentration 10 µM (printed "10 gsM")): 28%
